Reference: patent US6809065B2, “Herbicide containing substituted pyrazole derivative as active ingredient” (SDS Biotech K.K., priority 2001, dated 2004)

What was measured:
Chenopodium album [1] = assay: Upland field foliage treatment (Test Example 1); type: in vivo; details: foliage treatment 14th day after sowing, wettable powder, 1 kg active ingredient per hectare, evaluated 21st day after application
Description: (§1) In the above evaluation criteria, the term “herbicidal effect” means evaluation to the objective weeds, and a higher index of the evaluation criteria means higher herbicidal effect on the objective weeds. On the other hand, a lower index of the evaluation criteria for the crops means higher safety to the crops. A plastic pot of 130 cm^2 was filled with upland soil. Then, seeds of weeds, namely, Setaria viridis, Digitaria adscendens, Chenopodium album and Stellaria media, and seeds of crops, namely, soybean (Glycine max) and wheat (Triticum aestivum), were sowed and covered with soil of about 1 cm thick. On the 14th day after the sowing, a wettable powder composition was prepared in accordance with Formulation Example 1, diluted with water in such an amount that the amount of the active ingredient became 1 kg per hectare, and then uniformly applied to the plant leaf surfaces. On the 21st day after the application, observation and evaluation were carried out according to the aforesaid criteria.

Digitaria adscendens [2] = assay: Upland field foliage treatment (Test Example 1); type: in vivo; details: foliage treatment 14th day after sowing, wettable powder, 1 kg active ingredient per hectare, evaluated 21st day after application
Description: as §1

Setaria viridis [3] = assay: Upland field foliage treatment (Test Example 1); type: in vivo; details: foliage treatment 14th day after sowing, wettable powder, 1 kg active ingredient per hectare, evaluated 21st day after application
Description: as §1

Stellaria media [4] = assay: Upland field foliage treatment (Test Example 1); type: in vivo; details: foliage treatment 14th day after sowing, wettable powder, 1 kg active ingredient per hectare, evaluated 21st day after application
Description: as §1

soybean (Glycine max) [5] = assay: Upland field foliage treatment (Test Example 1), crop; type: in vivo; details: foliage treatment 14th day after sowing, 1 kg active ingredient per hectare, evaluated 21st day, lower index = higher safety
Description: as §1

[6] = tested on: wheat (Triticum aestivum); assay: as above; type: in vivo; details: foliage treatment 14th day after sowing, 1 kg active ingredient per hectare, evaluated 21st day, lower index = higher safety
Description: as §1

Chenopodium album [7] = assay: Upland soil treatment (Test Example 2); type: in vivo; details: soil surface treatment next day after sowing, wettable powder, 1 kg active ingredient per hectare, evaluated 21st day after application
Description: (§2) In the above evaluation criteria, the term “herbicidal effect” means evaluation to the objective weeds, and a higher index of the evaluation criteria means higher herbicidal effect on the objective weeds. On the other hand, a lower index of the evaluation criteria for the crops means higher safety to the crops. A plastic pot of 130 cm^2 was filled with upland soil. Then, seeds of weeds, namely, Setaria viridis, Digitaria adscendens, Chenopodium album and Stellaria media, and seeds of crops, namely, soybean (Glycine max) and wheat (Triticum aestivum), were sowed and covered with soil of about 1 cm thick. On the next day after the sowing, a wettable powder composition was prepared in accordance with Formulation Example 1, diluted with water in such an amount that the amount of the active ingredient became 1 kg per hectare, and then uniformly applied to the soil surface. On the 21st day after the application, observation and evaluation were carried out according to the aforesaid criteria.

Digitaria adscendens [8] = assay: Upland soil treatment (Test Example 2); type: in vivo; details: soil surface treatment next day after sowing, wettable powder, 1 kg active ingredient per hectare, evaluated 21st day after application
Description: as §2

Setaria viridis [9] = assay: Upland soil treatment (Test Example 2); type: in vivo; details: soil surface treatment next day after sowing, wettable powder, 1 kg active ingredient per hectare, evaluated 21st day after application
Description: as §2

Stellaria media [10] = assay: Upland soil treatment (Test Example 2); type: in vivo; details: soil surface treatment next day after sowing, wettable powder, 1 kg active ingredient per hectare, evaluated 21st day after application
Description: as §2

soybean (Glycine max) [11] = assay: Upland soil treatment (Test Example 2), crop; type: in vivo; details: soil surface treatment next day after sowing, 1 kg active ingredient per hectare, evaluated 21st day, lower index = higher safety
Description: as §2

[12] = tested on: wheat (Triticum aestivum); assay: Upland soil treatment (Test Example 2), crop; type: in vivo; details: soil surface treatment next day after sowing, 1 kg active ingredient per hectare, evaluated 21st day, lower index = higher safety
Description: as §2

Echinochloa spp. = assay: Paddy field treatment (Test Example 3); type: in vivo, Echinochloa crusgalli; details: paddy pot, submerged 4 cm, dropped on water surface 10th day after transplantation, 1 kg active ingredient per hectare, evaluated 21st day
Experimental: (§3) In the above evaluation criteria, the term “herbicidal effect” means evaluation to the objective weeds, and a higher index of the evaluation criteria means higher herbicidal effect on the objective weeds. On the other hand, a lower index of the evaluation criteria for the crops means higher safety to the crops. A plastic pot of 130 cm^2 was filled with paddy soil, and soil puddling was carried out to adjust the submerged depth to 4 cm. Then, seeds of Echinochloa crusgalli, Monochoria vaginalis, Ammannia multiflora and Scirpus juncoides were sowed, and rice (Oryza […], variety: Koshihikari) of two-leaf period was transplanted by 2 rice plants of 1 stub per pot at a depth of 3 cm. On the 10th day after the transplantation, a wettable powder composition was prepared in accordance with Formulation Example 1, diluted with water in such an amount that the amount of the active ingredient became 1 kg per hectare, and then dropped to diffuse on the water surface. On the 21st day after the dropping, observation and evaluation were carried out according to the aforesaid criteria.

Ammannia multiflora = assay: Paddy field treatment (Test Example 3); type: in vivo; details: paddy pot, submerged 4 cm, dropped on water surface 10th day after transplantation, 1 kg active ingredient per hectare, evaluated 21st day
Experimental: as §3

Monochoria vaginalis = assay: Paddy field treatment (Test Example 3); type: in vivo; details: paddy pot, submerged 4 cm, dropped on water surface 10th day after transplantation, 1 kg active ingredient per hectare, evaluated 21st day
Experimental: as §3

Scirpus juncoides = assay: Paddy field treatment (Test Example 3); type: in vivo; details: paddy pot, submerged 4 cm, dropped on water surface 10th day after transplantation, 1 kg active ingredient per hectare, evaluated 21st day
Experimental: as §3

[13] = tested on: rice (Oryza sative, variety: Koshihikari); assay: Paddy field treatment (Test Example 3), crop; type: in vivo, Oryza sativa; details: transplanted rice two-leaf period, water surface treatment 10th day after transplantation, 1 kg active ingredient per hectare, evaluated 21st day, lower index = higher safety
Experimental: as §3

SMILES | Herbicidal activity Chenopodium album (Chenopodium album [1]) | Herbicidal activity Digitaria adscendens (Digitaria adscendens [2]) | Herbicidal activity Setaria viridis (Setaria viridis [3]) | Herbicidal activity Stellaria media (Stellaria media [4]) | Herbicidal activity Glycine max (soybean (Glycine max) [5]) | Herbicidal activity Triticum aestivum [6] | Herbicidal activity Chenopodium album (Chenopodium album [7]) | Herbicidal activity Digitaria adscendens (Digitaria adscendens [8]) | Herbicidal activity Setaria viridis (Setaria viridis [9]) | Herbicidal activity Stellaria media (Stellaria media [10]) | Herbicidal activity Glycine max (soybean (Glycine max) [11]) | Herbicidal activity Triticum aestivum [12] | Herbicidal activity Echinochloa spp. (Echinochloa spp.) | Herbicidal activity Ammannia multiflora (Ammannia multiflora) | Herbicidal activity Monochoria vaginalis (Monochoria vaginalis) | Herbicidal activity Scirpus juncoides (Scirpus juncoides) | Herbicidal activity Oryza sativa [13]
COC=C(Cn1nc(-c2ccccc2)cc1SC)C(=O)OC [Compound 37] | 5 (herbicidal effect of not less than 90% by weight) | 4 (herbicidal effect of not less than 70% by weight and less than 90% by weight) | 4 (herbicidal effect of not less than 70% by weight and less than 90% by weight) | 5 (herbicidal effect of not less than 90% by weight) | 0 (herbicidal effect of not less than 0% by weight and less than 10% by weight) | 0 (herbicidal effect of not less than 0% by weight and less than 10% by weight) | 4 (herbicidal effect of not less than 70% by weight and less than 90% by weight) | 5 (herbicidal effect of not less than 90% by weight) | 5 (herbicidal effect of not less than 90% by weight) | 5 (herbicidal effect of not less than 90% by weight) | 0 (herbicidal effect of not less than 0% by weight and less than 10% by weight) | 0 (herbicidal effect of not less than 0% by weight and less than 10% by weight) | 3 (herbicidal effect of not less than 50% by weight and less than 70% by weight) | 3 (herbicidal effect of not less than 50% by weight and less than 70% by weight) | 3 (herbicidal effect of not less than 50% by weight and less than 70% by weight) | 3 (herbicidal effect of not less than 50% by weight and less than 70% by weight) | 0 (herbicidal effect of not less than 0% by weight and less than 10% by weight)
CCc1c(Br)c(-c2ccccc2)nn1CC(=COC)C(=O)OC [Compound 43] | 5 (herbicidal effect of not less than 90% by weight) | 4 (herbicidal effect of not less than 70% by weight and less than 90% by weight) | 4 (herbicidal effect of not less than 70% by weight and less than 90% by weight) | 5 (herbicidal effect of not less than 90% by weight) | 0 (herbicidal effect of not less than 0% by weight and less than 10% by weight) | 0 (herbicidal effect of not less than 0% by weight and less than 10% by weight) | 4 (herbicidal effect of not less than 70% by weight and less than 90% by weight) | 4 (herbicidal effect of not less than 70% by weight and less than 90% by weight) | 4 (herbicidal effect of not less than 70% by weight and less than 90% by weight) | 4 (herbicidal effect of not less than 70% by weight and less than 90% by weight) | 0 (herbicidal effect of not less than 0% by weight and less than 10% by weight) | 0 (herbicidal effect of not less than 0% by weight and less than 10% by weight) | 3 (herbicidal effect of not less than 50% by weight and less than 70% by weight) | 3 (herbicidal effect of not less than 50% by weight and less than 70% by weight) | 3 (herbicidal effect of not less than 50% by weight and less than 70% by weight) | 4 (herbicidal effect of not less than 70% by weight and less than 90% by weight) | 0 (herbicidal effect of not less than 0% by weight and less than 10% by weight)
